Common to all, as to assay type: cell-based
Assay [1] deals with HepG2 and A549 cell lines. Kind of assay: Cell painting morphological manifold of compound-treated cancer cell lines (deep CNN). The settings on record: for clustering in manifold by phenotypic effect (FIG. 16H): previously unseen drugs versus previously seen drugs; for clustering in morphological embedding (FIGS. 18A, 18B): 48 hours incubation, held-out versus training compounds. How it is done:
Immortalized cancer cell lines A549 and HepG2 were cultured in T150 flasks and harvested above 60% confluency. The cells were counted on a cell counter (Countess by ThermoFisher) the cell suspension was adjusted to 2000 cells per 50 μL well of a 384 well PDL coated Cell Carrier Ultra (Perkin Elmer) plates. The cells were incubated overnight in a 37 C 5% CO2 incubator and then dosed with our compound collection (at multiple concentrations in log space) in DMSO with a Labcyte Echo from Echo qualified PP2.0 plates. After dosing the cells were incubated for 48 hours in a 37 C 5% CO2 incubator. After the incubation period the plates were stained with Mito-tracker by removing the cell media, washing with PBS on a EL406 plate washer (Biotek), then adding diluted 1 mM stock concentration mitotracker dye in cell culture media to each well with a PRIME liquid handler (HighRes Biosciences). The plates were incubated for 30 minutes and then washed 1× with PBS. Formaldehyde was added to each well of each plate to fix the cells and incubated for 20 minutes and then washed 5× with PBS. 0.1% Triton in PBS was added to the plates and incubated for 15 minutes then washed 2× with PBS and a stain mixture was added to all wells of the plates. The stain mixture included 5 μg/mL Hoechst, 100 μg/mL Concanavalin Alexa Fluor 488 conjugate, 3 uM SYTO 14 green fluorescent nucleic acid stain, 5 uL/mL Phalloidin/Alexa Fluor 568 conjugate, and 1.5 μg/mL Wheat Germ Agglutinin Alexa Fluor 555 conjugate in HBSS with BSA. The plates were incubated for 30 minutes with the stain solution and then washed 4× with PBS. The plates were then imaged in a Perkin Elmer Opera Phenix microscope with 16 images taken per well for all stain wavelengths.
This is a classification task where the goal is to identify which compound was used to perturb the cells in a single well. A single well is split into 16 different fields of views (FOV) which are captured by the microscope. The raw FOV images were preprocessed by correcting the illumination. The FOV images were further cropped into smaller squares so that we can fit into memory during the training of deep convolutional neural network (CNN) models. The Hoechst channel was used to detect the nucleus and then make a square around the detected nucleus.
A deep convolutional neural network was implemented to model the classification task. It was a 150-way classification task. The residual networks (ResNets) was used as the base feature extractor network with a fully connected linear network on top to perform the classification. Standard augmentations were implemented which improved the performance and removed experimental biases. For example, intensity based augmentations like gamma contrast are helpful in removing experimental biases (batch effects). For the mechanism of action identification, some compounds were omitted (˜30 compounds out of 150) during training. During inference, the unseen compounds were embedded closer to the expected mechanism of action cluster along with the seen compounds. FIG. 18A depicts example embeddings with similar drugs clustered more closely together. Here, lovastatin is a held out, unseen drug whereas atorvastatin is a drug used for training. […] In accordance with the methodology of Example 11 (e.g., FIGS. 16A-16D) described above, using embeddings/predictions, the candidate therapy is analyzed to predict its effect (e.g., effect in reverting disease phenotype back to healthy), and further validated in vitro.

Another assay relates to knockout treated cells. Kind of assay: Microscopy tile embeddings (deep neural network, UMAP) of WT and KO lines with treatment. To be noted: UMAP projector calculated on untreated WT/KO tile embeddings. An excerpt:
FIG. 16C depicts an example embedding showing phenotypic distinction between wild type and knockout cells. FIG. 16C was generated by projecting embeddings extracted from a deep neural network down to two dimensions using UMAP. The neural network model was trained in a supervised manner to discriminate between sick/healthy based on labels for WT and KO lines respectively. Each point in the figure corresponds to a tile of the original microscopy image. The points represented here are only for the WT and KO groups without treatment.
FIG. 16D depicts the use of embeddings for validating known effects of treatments (e.g., rapamycin and everolimus). The following figure uses the same UMAP projector calculated on tile embeddings of WT/KO with no treatment to project the embeddings representing treatment groups into the same space.

Assay [2] relates to human cortical excitatory neurons. Kind of assay: Neuropaint high-content imaging of neurons exposed to small molecule compounds, ML embeddings. The settings on record: 3 concentrations; DAPI, LV-Syn-GFP, Actin, Mito-tracker stains.
Method: DoxNGN2 iPSCs were plated at two different seeding densities (1k and 6k cells) and further differentiated into human cortical excitatory neurons. Different populations of neurons were exposed to 3 different concentrations of small molecules including rotenone, everolimus, loxapine, phorbol 12-myristate 13-acetate (PMA), staurosporine, rapamycin, BIO, and blebbistatin. Neurons were also treated with controls including phosphate buffered saline and dimethyl sulfoxide (DMSO). Following treatment, phenotypic assay data was captured from the treated neurons by performing high-content imaging (e.g., Neuropaint).

Results on six molecules are retold here after patent publication US12505549B1, “Microscopy image analyses for disease modeling” (Insitro, Inc., priority 2020, dated 2025).

In the case of `COc1ccc(-c2ccc3c(N4CCOC[C@@H]4C)nc(N4CCOC[C@@H]4C)nc3n2)cc1CO` [AZD 8055], the “clustering in manifold by phenotypic effect (FIG. 16H)” value (shortened to “clustering in manifold”) in assay [1] is “clustered proximity to previously seen drugs”.

Turning to `COc1cc(C(=O)O)ccc1NC(=O)[C@@H]1N[C@@H](CC(C)(C)C)[C@](C#N)(c2ccc(Cl)cc2F)[C@H]1c1cccc(Cl)c1F` [RG7388], the “clustering in manifold” value in assay [1] was “clustered proximity to previously seen drugs”.

Turning to `CC(C)c1c(C(=O)Nc2ccccc2)c(-c2ccccc2)c(-c2ccc(F)cc2)n1CC[C@@H](O)C[C@@H](O)CC(=O)O` [atorvastatin], the “clustering in morphological embedding (FIGS. 18A, 18B)” value in assay [1] is recorded as “clustered close together”.

As to `CO[C@H]1C[C@@H]2CC[C@@H](C)[C@@](O)(O2)C(=O)C(=O)N2CCCC[C@H]2C(=O)O[C@H]([C@H](C)C[C@@H]2CC[C@@H](OCCO)[C@H](OC)C2)CC(=O)[C@H](C)/C=C(\C)[C@@H](O)[C@@H](OC)C(=O)[C@H](C)C[C@H](C)/C=C/C=C/C=C/1C` [everolimus], in the assay on knockout treated cells, the “shift of knockout cells in image embedding (FIG. 16D)” value is on record as “induces knockout treated cells to revert back towards a healthy phenotype”.

For the molecule `CC[C@H](C)C(=O)O[C@H]1C[C@@H](C)C=C2C=C[C@H](C)[C@H](CC[C@@H]3C[C@@H](O)CC(=O)O3)[C@H]21` [lovastatin], in assay [1], the “clustering in morphological embedding (FIGS. 18A, 18B)” value is on record as “clustered close together” and the “clustering in manifold” value is given as “clustered proximity to previously seen drugs”.

With `CN[C@@H]1C[C@H]2O[C@@](C)([C@@H]1OC)n1c3ccccc3c3c4c(c5c6ccccc6n2c5c31)C(=O)NC4` [staurosporine], the “location of treated neurons in embeddings (FIG. 10C)” value in assay [2] was “located separate from neurons treated with other small compounds”.
